Measured values published in patent publication US8507537B2, “Trifluromethoxyphenyl-substituted tetramic acid derivatives pesticides and/or herbicides” (Bayer CropScience AG, priority 2006, dated 2013).

Columns and labels:
Format in all cases: in vivo
Summer wheat = assay: Greenhouse container trials with cereals, use of safeners (post-emergence herbicidal effect on crop)
Method: (§1) Post-Emergence Herbicidal Effect
Seeds of monocotyledonous and dicotyledonous weed plants and crop plants are placed in sandy loam soil in wood fibre pots or in plastic pots and are covered with earth and cultivated in a greenhouse and also, during the vegetation period, outdoors, outside of the greenhouse, under good growth conditions. 2 to 3 weeks after sowing, the trial plants are treated at the one- to three-leaf stage. The test compounds, formulated as wettable powders (WP) or liquids (EC), are sprayed onto the plants and the soil surface in various dosages, with a water application rate of 300 l/ha (converted) and with addition of wetting agent (0.2% to 0.3%). […]
(§2) If the testing is also to look at whether safeners can improve the tolerance of the crop plants for test substances, the following options are used for the application of the safener: • seeds of the crop plants are dressed with the safener substance prior to sowing (the amount of safener is stated as a percentage, based on the seed weight) • crop plants are sprayed with the safener, with a defined application rate per hectare, prior to application of the test substances (typically 1 day before the test substances are applied) • the safener is applied together with the test substance in the form of a tank mix (the amount of safener is reported in g/ha or as a proportion relative to the herbicide).
(§3) By comparing the effect of test substances on crop plants which have been treated with safener and without safener it is possible to assess the effect of the safener substance.
(§4) Greenhouse Container Trials with Cereals
(§5) Mefenpyr 1 Day Prior to Herbicide Application

Summer barley = assay: as above; conditions: without safener; for Summer barley observed (%) herbicidal effect: 10 days after application; for Summer barley observed (%): 28 days after application
Method: as §1
Seeds of monocotyledonous and dicotyledonous weed plants and crop plants are placed in sandy loam soil in wood fibre pots or in plastic pots and are covered with earth and cultivated in a greenhouse and also, during the vegetation period, outdoors, outside of the greenhouse, under good growth conditions. 2 to 3 weeks after sowing, the trial plants are treated at the one- to three-leaf stage. The test compounds, formulated as wettable powders (WP) or liquids (EC), are sprayed onto the plants and the soil surface in various dosages, with a water application rate of 300 l/ha (converted) and with addition of wetting agent (0.2% to 0.3%). 3 to 4 weeks after the trial plants have been treated, the effect of the products is rated visually in comparison to untreated controls (herbicidal effect in percent: 100% effect=plants have died, 0% effect=like control plants).
as §2, §3, §4, §5

[1] = tested on: cotton aphid (Aphis gossypii); assay: Activity boost through ammonium/phosphonium salts, Aphis gossypii test
Method: (§6) Solvent: 7 parts by weight of dimethylformamide
(§7) Emulsifier: 2 parts by weight of alkylaryl polyglycol ether
(§8) To produce a suitable preparation of active compound, 1 part by weight of active compound is mixed with the stated amounts of solvent and emulsifier, and the concentrate is diluted with emulsifier-containing water to the desired concentration. For application with ammonium salts or phosphonium salts these are added in a concentration of 1000 ppm a.i. to the spray liquor.
(§9) Cotton plants (Gossypium hirsutum) heavily infested by the cotton aphid (Aphis gossypii) are sprayed to runoff with the preparation of active compound at the desired concentration.
(§10) After the desired period of time, the kill in % is determined. 100% means that all aphids have been killed; 0% means that none of the aphids have been killed.

[2] = tested on: green peach aphid (Myzus persicae); assay: Activity boost through ammonium/phosphonium salts in combination with penetration promoters, Myzus persicae test; conditions: 20 ppm active compound
Method: Activity Boost Through Ammonium/Phosphonium Salts in Combination with Penetration Promoters
as §6, §7
(§11) To produce a suitable preparation of active compound, 1 part by weight of active compound is mixed with the stated amounts of solvent and emulsifier, and the concentrate is diluted with water to the desired concentration. For application with ammonium salts or phosphonium salts and penetration promoters (rapeseed oil methyl ester 500 EW) these are in each case added in a concentration of 1000 ppm to the spray liquor.
Bell pepper plants (Capsicum annuum) heavily infested by the green peach aphid (Myzus persicae) are sprayed to runoff with the preparation of active compound at the desired concentration. After the desired time, the kill in % is determined. 100% means that all of the animals have been killed; 0% means that no animals have been killed.

[3] = tested on: cotton aphid (Aphis gossypii); assay: Activity boost through ammonium/phosphonium salts in combination with penetration promoters, Aphis gossypii test; conditions: 4 ppm active compound
Method: as §6, §7
as §11, with “diluted with emulsifier-containing water to” for “diluted with water to”, “1000 ppm a.i. to the” for “1000 ppm to the”
as §9, §10

[4] = tested on: green peach aphid (Myzus persicae); assay: Activity boost through ammonium/phosphonium salts, Myzus persicae test; conditions: 20 ppm active compound
Method: Activity Boost Through Ammonium/Phosphonium Salts
as §6, §7
as §8, with “with” for “with emulsifier-containing”
Bell pepper plants (Capsicum annuum) which are heavily infested by the Green peach aphid (Myzus persicae) are treated with the active compound preparation of the desired concentration by spraying to runoff point. After the desired period of time, the kill in % is determined. 100% means that all animals have been killed; 0% means that none of the animals have been killed.

[5] = tested on: rice brown planthopper (Nilaparvata lugens); assay: Nilaparvata lugens test (NILALU hydroponic treatment); conditions: concentration of 500 ppm after 7 d
Method: NILALU Hydroponic Treatment
• 78 parts by weight of acetone • 1.5 parts by weight of dimethylformamide Emulsifier: • 0.5 part by weight of alkylaryl polyglycol ether
To produce a suitable preparation of active compound, 1 part by weight of active compound is mixed with the stated amounts of solvents and emulsifier, and the concentrate is diluted with emulsifier-containing water to the desired concentration.
The active compound preparation is pipetted into water. The stated concentration refers to the amount of active compound per volume unit of water (mg/l=ppm); the infection with the rice brown planthopper (Nilaparvata lugens) is then carried out.
After the desired period of time, the effect in % is determined. 100% means that all rice planthoppers have been killed; 0% means that none of the rice planthoppers have been killed.

[6] = 20 ppm active compound, +AS (1000 ppm)
[7] = 20 ppm active compound, without AS
[8] = +RME + AS (in each case 1000 ppm)

**Q.** `CCOC1CCCC2(C1)NC(=O)C(c1c(C)cc(C)cc1OC(F)(F)F)=C2OC(C)=O` (single isomer, unassigned) [(I-b-24)] was tested. Which “Summer wheat observed (%) herbicidal effect” value (Summer wheat; 12.5 g of a.i./ha, 10 days after application, without safener) did it give?
**A.** 30%

**Q.** What about the “Summer wheat observed (%) herbicidal effect” value (Summer wheat; 25 g of a.i./ha, 10 days after application, without safener) of the same compound?
**A.** 40%

**Q.** What about the “Summer wheat observed (%) herbicidal effect” value (Summer wheat; 50 g of a.i./ha, 10 days after application, without safener) of the same compound?
**A.** 40%

**Q.** What about the “Summer wheat observed (%) herbicidal effect” value (Summer wheat; 50 g of a.i./ha, 28 days after application, without safener) of the same compound?
**A.** 20%

**Q.** And the “Summer wheat observed (%) herbicidal effect” value (Summer wheat; 100 g of a.i./ha, 10 days after application, without safener)?
**A.** 40%

**Q.** And the “Summer wheat observed (%) herbicidal effect” value (Summer wheat; 100 g of a.i./ha, 28 days after application, without safener)?
**A.** 20%

**Q.** What about the “Summer barley observed (%) herbicidal effect” value (Summer barley; 12.5 g of a.i./ha) of the same compound?
**A.** 10%

**Q.** What about the “Summer barley observed (%) herbicidal effect” value (Summer barley; 25 g of a.i./ha) of the same compound?
**A.** 20%

**Q.** And the “Summer barley observed (%) herbicidal effect” value (Summer barley; 50 g of a.i./ha)?
**A.** 30%

**Q.** And the “Summer barley observed (%) herbicidal effect” value (Summer barley; 100 g of a.i./ha)?
**A.** 30%

**Q.** For `COC1CCC2(CC1)NC(=O)C(c1c(C)cc(C)cc1OC(F)(F)F)=C2OC(C)=O` (single isomer, unassigned) [(I-b-25)], which “Summer wheat observed (%) herbicidal effect” value (Summer wheat; 100 g of a.i./ha, 10 days after application, without safener (table of I-b-25)) is on record?
**A.** 20%

**Q.** How did the “Kill rate/% after 6 days” value [1, 6] turn out when `CCOC1CCC2(CC1)NC(=O)C(c1c(Br)cc(OC(F)(F)F)cc1Br)=C2O` (single isomer, unassigned) [I-a-9] was run?
**A.** 85%

**Q.** What about the “Kill rate/% after 6 days” value [1, 7] of the same compound?
**A.** 65%

**Q.** With `COC1CCC2(CC1)NC(=O)C(c1c(Cl)cc(OC(F)(F)F)cc1Cl)=C2O` (single isomer, unassigned) [I-a-29] as the compound, how does the “Kill rate/% after 6 days” value ([1]; 4 ppm active compound, +AS (1000 ppm)) read?
**A.** 70%

**Q.** And the “Kill rate/% after 6 days” value ([1]; 4 ppm active compound, without AS)?
**A.** 5%

**Q.** What about the “Kill rate/% after 6 days” value [1, 6] of the same compound?
**A.** 85%

**Q.** What about the “Kill rate/% after 6 days” value [1, 7] of the same compound?
**A.** 70%

**Q.** And the “Kill rate/% after 6 days” value ([2]; +AS (1000 ppm))?
**A.** 70%

**Q.** What about the “Kill rate/% after 6 days” value ([2]; +RME (1000 ppm)) of the same compound?
**A.** 95%

**Q.** What about the “Kill rate/% after 6 days” value [2, 8] of the same compound?
**A.** 100%

**Q.** And the “Kill rate/% after 6 days” value ([2]; without additive)?
**A.** 0%

**Q.** Which results are given for `COC1CCC2(CC1)NC(=O)C(c1c(Br)cc(OC(F)(F)F)cc1Br)=C2O` (single isomer, unassigned) [I-a-32]?
**A.** Kill rate/% after 6 days ([3]; +AS (1000 ppm)): 30%; Kill rate/% after 6 days ([3]; +RME (1000 ppm)): 70%; Kill rate/% after 6 days [3, 8]: 80%; Kill rate/% after 6 days ([3]; without additive): 5%; Kill rate/% after 6 days ([4]; +AS (1000 ppm)): 85%; Kill rate/% after 6 days ([4]; without AS): 0%

**Q.** With `COC1CCC2(CC1)NC(=O)C(c1c(C)cc(OC(F)(F)F)cc1Cl)=C2O` (single isomer, unassigned) [I-a-39] as the compound, how does the “Kill rate/% after 6 days” value ([4]; +AS (1000 ppm)) read?
**A.** 40%

**Q.** What about the “Kill rate/% after 6 days” value ([4]; without AS) of the same compound?
**A.** 10%

**Q.** Which “Summer wheat observed (%)” value (Summer wheat; 10 days after application, 25 g of a.i./ha, without safener) does the source give for `COC1CCC2(CC1)NC(=O)C(c1c(C)cc(C)cc1OC(F)(F)F)=C2O` (single isomer, unassigned) [I-a-49] here?
**A.** 10%

**Q.** What about the “Summer wheat observed (%)” value (Summer wheat; 10 days after application, 50 g of a.i./ha, without safener) of the same compound?
**A.** 20%

**Q.** And the “Summer wheat observed (%)” value (Summer wheat; 10 days after application, 100 g of a.i./ha, without safener)?
**A.** 40%

**Q.** `COC1CCC2(C1)NC(=O)C(c1c(C)cc(C)cc1OC(F)(F)F)=C2O` (single isomer, unassigned) [I-a-50] was tested. Which “Summer wheat observed (%)” value (Summer wheat; 28 days after application, 12.5 g of a.i./ha, without safener) did it give?
**A.** 10%

**Q.** And the “Summer wheat observed (%)” value (Summer wheat; 28 days after application, 25 g of a.i./ha, without safener)?
**A.** 40%

**Q.** What about the “Summer wheat observed (%)” value (Summer wheat; 28 days after application, 50 g of a.i./ha, without safener) of the same compound?
**A.** 60%

**Q.** What about the “Summer wheat observed (%)” value (Summer wheat; 28 days after application, 100 g of a.i./ha, without safener) of the same compound?
**A.** 70%

**Q.** What about the “Summer barley observed (%)” value (Summer barley; 12.5 g of a.i./ha) of the same compound?
**A.** 8%

**Q.** And the “Summer barley observed (%)” value (Summer barley; 25 g of a.i./ha)?
**A.** 30%

**Q.** And the “Summer barley observed (%)” value (Summer barley; 50 g of a.i./ha)?
**A.** 50%

**Q.** What about the “Summer barley observed (%)” value (Summer barley; 100 g of a.i./ha) of the same compound?
**A.** 60%

**Q.** For `O=C1NC2(CCOCC2)C(O)=C1c1cc(OC(F)(F)F)ccc1Br` [I-a-4], which efficacy [5] is on record?
**A.** ≥ 80%
